The results in this text go back to patent US20200069629A1, “PHEROMONE COMPOSITIONS AND USES THEREOF” (CEVA SANTE ANIMALE, priority 2015, published 2020).

This data set can be described thus: Stability test of Formula A, contents by gas chromatography. Format: physicochemical. As to conditions: in Formula A; for Content T3 months (25/60) / Content T3 months (40/75): 3 months; for Content T3 months (25/60) / Content T7 months (25/60): 25° C. and 60% RH; for Content T3 months (40/75): 40° C. and 75% RH; for Content T7 months (25/60): 7 months; for Content T0 month: white glass flask. As to the method:
Detection and measures of the valeric acid, ethyl lactate and linoleic acid were made by using Gas chromatography (GC). Approximately 490 mg of linoleic acid, 53 mg of valeric acid and 78 mg of ethyl lactate accurately weighed are introduced into a 50 ml volumetric flask. This is completed to volume with ethyl acetate. […] A dilution 1/20 is made and completed to volume with ethyl acetate and the solution is stirred to homogenize. Approximately 2.5 g of Formula tested is introduced into a 20 ml volumetric flask. This is completed to volume with ethyl acetate. […] The solution is limpid. Gas chromatography equipped with a Capillary Column HP-FFAP 25 m×320 μm and a FID detector at 250° C. 1 μl of the solution is injected in the inlet (250° C.) and eluted through the column with Helium at constant flow (3 ml/min). Valeric acid (≈5.2 min), linoleic acid (≈13.5 min) and ethyl lactate (≈2.7 min) are quantified and contents thereof (% w/w) are given by the ratio of the areas of the peak corresponding to valeric acid, linoleic acid or ethyl lactate in the chromatogram obtained with the sample preparation and the standard solution.

Molecules are shown by their SMILES.

As for `CCOC(=O)C(C)O` (stereo not drawn) [Ethyl lactate], the “Content T3 months (25/60)” value is on record as 0.060 % w/w, the “Content T3 months (40/75)” value amounted to 0.059 % w/w, the “Content T7 months (25/60)” value came out at 0.059 % w/w and the “Content T0 month” value is 0.0625 % w/w.

Take `CCCCC/C=C\C/C=C\CCCCCCCC(=O)O` [Linoleic acid]: the “Content T3 months (25/60)” value turned out to be 0.386 % w/w, the “Content T3 months (40/75)” value was found to be 0.364 % w/w, the “Content T7 months (25/60)” value came out at 0.398 % w/w and the “Content T0 month” value is 0.395 % w/w.

With `CCCCC(=O)O` [Valeric acid], the “Content T3 months (25/60)” value was determined as 0.039 % w/w, the “Content T3 months (40/75)” value is listed as 0.038 % w/w, the “Content T7 months (25/60)” value was determined as 0.039 % w/w and the “Content T0 month” value was 0.0425 % w/w.
